# From patent US6589977B1, “Pyrrole derivatives and cell death inhibitors” (Sagami Chemical Research Center, priority 1999, dated 2003)
# Assays:
# cerebellar granule cells [1] = experiment: Inhibition of low potassium medium-induced death of cerebellar granule cells; assay type: cell-based, rats; conditions: compound 10 μM; low potassium medium (5 mM KCl); after 18 hours
# Method: (§1) According to a known method (A Dissection and Tissue Culture Manual of the Nervous System, p. 211, 1989, Alan R, Liss, Inc.), cerebellar granule cells were isolated from the cerebellum of 7 days old rats and cultured. Namely, after conducting isolation procedures described in the above literature, the resulting cells were resuspended in DMEM containing 10% fetal bovine serum, 25 mM KCl and 2 mM glutamine, and seeded in poly-lysine coated plates. After the cells were cultured in a CO2 incubator for 48 hours according to a conventional method, cytosine-1-β-D(+)-arabinofuranoside (Ara-C) (10 μM) was added thereto, and the cell was continued to culture. The following experiments were conducted with the cells of 7 to 14 days old from the start day of the cultivation, the cells having completed neurite extension sufficiently.
# It is known that neuronal cells undergo cell death when they are cultured in a medium of low potassium (Proc. Natl. Acad. Sci. U.S.A., volume 90, p 10989, 1993). […] When the test compound 1 (10 μM), the test compound 10 (10 μM), or the test compound 15 (10 μM)coexisted, 50%, 80%, and 85% of cells were respectively alive on an observation made similarly after 18 hours.
# cerebellar granule cells [2] = experiment: Inhibition of MPPI-induced death of cerebellar granule cells (Parkinson model); assay type: cell-based, rats; conditions: compound 1 μM added prior to MPPI (200 μM); 15 DIV cells; after 18 hours
# Method: as §1, with “The following experiments were conducted with the cells of 7 to 14 days old from the start day of the cultivation, the cells having completed neurite extension sufficiently.” left out
# In Parkinson's disease the dopaminergic neurons in the substantia nigra and corpus striatum in the mid-brain are selectively destroyed. Because following administration of MPTP(1-methyl-4-phenyl-1,2,3,6-tetrahydropyridine) the similar selective destruction of the dopaminergic neurons and Parkinson's disease-like symptoms are observed, the administration system of MPTP is generally employed as an in vivo model of the onset of Parkinson's disease. […]
# cerebellar granule cells [3] = experiment: Inhibition of FCCP-induced death of cerebellar granule cells; assay type: cell-based, rats; conditions: compound 10 μM; FCCP (5 μM); after 2 hours
# Method: as §1
# When the test compound 15 (10 μM) coexisted prior to the FCCP addition, 80% of cells were alive on an observation similarly made after 2 hours.
# [4] = system: Porcine ovarian granulosa cells (POGC); experiment: Inhibition of SNP-induced apoptosis of porcine ovarian granulosa cells; assay type: cell-based; conditions: SNP 0.5 mM; cells observed after 18 hours
# Text: Porcine ovaries were washed with PBS buffer, and Porcine ovarian granulosa cells (POGC) were collected by aspiration from follicles with a syringe. Cell fraction was recovered as a precipitate by centrifugation of the suspension. The operation of suspending the cell fraction into PBS buffer and subjecting the resulting suspension to centrifugation was repeated three times to wash the cells. The POGC obtained as a precipitate were suspended again into a culture medium (DMEM containing 10% fetal bovine serum) and cell clumps were disrupted by pipetting. The cell suspension was passed through a mesh to remove contaminating tissue fragments, and then pipetted in 24-well plates for cell culture. The cell suspension was cultured for 2 days in a CO2 incubator according to a conventional procedure (37° C., 5% CO2). Then, the medium was refreshed to remove floating cells and the cultivation was continued further 2 to 3 days until the cells reached subconfluency (0.7 to 2×10^5 cell/well). After the attaching cells were washed with serum-free medium, they were cultured in a serum-free DMEM (containing 5 μg/mL of transferrin, and 40 ng/mL of hydrocortisone, 4 mg/mL of bovine serum albumin (BSA), 100 nM androstendione) and it was possible to continue to culture cells with relatively immature differentiation. […] The cell death was also confirmed by MTT assay. Then, various concentrations of the test compounds were added to the present culture system and the cells were observed after 18 hours.
# cerebellar granule cells [5] = experiment: Inhibition of sodium azide-induced death of cerebellar granule cells; assay type: cell-based, rats; conditions: compound 10 μM; sodium azide (10 mM); after 2 hours
# Method: as §1, with “After the cells were cultured in a CO2 incubator for 48 hours according to a conventional method, cytosine-1-β-D(+)-arabinofuranoside (Ara-C) (10 μM) was added thereto, and the cell was continued to culture.” left out
# cerebellar granule cells [6] = experiment: Inhibition of glutamate-induced death of cerebellar granule cells; assay type: cell-based, rats; conditions: compound 10 μM; glutamate (1 mM); after 6 hours
# Method: as §1
# Medium of cerebellar granule cells cultured for 14 days as described in Test Example 3 was replaced with DMEM containing 10% of dialyzed fetal bovine serum and subjected to a further overnight culture. […] When the test compound 15 (10 μM) coexisted, more than 95% of cells were alive on an observation even after 6 hours.
# erythrocytes = experiment: Inhibition of hydrogen peroxide-induced hemolysis of erythrocytes; assay type: cell-based, Human; conditions: compound 10 μM added prior to hydrogen peroxide (300 μM); after 24 hours
# Method: Human blood was collected and precipitated by a centrifugation (1000 rpm, 5 min) and the precipitate containing erythrocytes was washed three times with PBS and resuspended (about 5×10^8 cells/ml) with DMEM containing 10% fetal bovine serum. Cell suspensions were dispensed into a 48-well plate to become subconfluent (about 5×10^5 cells/0.5 ml/well). When hydrogen peroxide (300 μM) was added and cultivation continued for 24 hours, more than 95% of erythrocytes underwent hemolysis and become dark and ghost-like on an observation under a light microscopy.
# cerebellar granule cells [7] = experiment: Inhibition of antimycin A-induced death of cerebellar granule cells; assay type: cell-based, rats; conditions: compound 10 μM; antimycin A (5 μM); after 2 hours
# Method: as §1
# When the test compound 15 (10 μM) coexisted prior to the antimycin A addition, more than 95% of cells were alive on an observation made similarly after 2 hours.
# cerebellar granule cells [8] = experiment: Inhibition of bilirubin-induced death of cerebellar granule cells; assay type: cell-based, rats; conditions: compound 10 μM added prior to bilirubin (10 μg/ml); after 23 hours
# Method: as §1
# Neonatal jaundice is known to induce severe brain damages by way of abnormally high concentration of bilirubin in the body. […] When the test compound 15 (10 μM) was added prior to the bilirubin addition, more than 95% of cells were alive on an observation made similarly after 23 hours.
# Hela 3S cells = experiment: Anti-cell death effect on Hela 3S cells cultured in Krebs Ringer Buffer; assay type: cell-based, human; conditions: compound 10 μM
# Method: Hela 3S cells (culture medium: DMEM containing 10% fetal bovine serum), a cell line derived from human cervical cancer, were seeded into multi 48 well plates and cultured in a CO2 incubator according to conventional procedures. Confirming the subconfluency of a cell culture, the medium was replaced with Krebs Ringer Buffer (120 mM NaCl, […], 1 mM KH2PO4, […], 20 mM HEPES, pH 7.4, 2.57 g/L glucose, 0.05 g/L Phenol Red) and washed three times with the same buffer and cultivation continued in the same buffer. […] When the test compound 1 (10 μM) or the test compound 15 (10 μM) was added in the present culture system and cultivation continued similarly, the proportion of normal cells increased 59% or 77% respectively, and the proportion of necrosis-like cells decreased (1% or 0%, respectively), indicating the anti-cell death effects.
structure (smiles),measurement,setting,value
Cc1ccc2[nH]cc(-c3cn(C)cc3-c3c[nH]c4ccc(C)cc34)c2c1 [Compound 15],cells alive,cerebellar granule cells [1],85%
same,cells alive,cerebellar granule cells [2],more than 95%
same,cells alive,cerebellar granule cells [3],80%
same,MEC (Minimum effective concentration for more than 95% of inhibition of cell death),[4],0.05 µM
same,cells alive,cerebellar granule cells [5],more than 95%
same,cells alive,cerebellar granule cells [6],more than 95%
same,inhibition of hemolysis,erythrocytes,almost complete inhibition of hemolysis
same,cells alive,cerebellar granule cells [7],more than 95%
same,cells alive,cerebellar granule cells [8],more than 95%
same,proportion of necrosis-like cells,Hela 3S cells; after 5 hours (11% without compound),0%
same,proportion of normal cells,Hela 3S cells; after 5 hours (42% normal without compound),77%
